Measured values published in patent US20250340563A1, “FUSED PYRIDAZINE DERIVATIVES AS NLRP3 INHIBITORS” (Takeda Pharmaceutical Company Limited, priority 2022, published 2025).

Biological target: NLRP3 inflammasome (Homo sapiens, UniProt Q96P20)
Assay: IL-1β assay in IFN-γ-differentiated, LPS-primed, ATP-activated THP-1 cells (ELISA)
Assay type: cell-based
Settings: 50 ng/mL LPS priming, 2.5 mM ATP activation, 2 hours
Procedure: Monocytic THP-1 cells (ATCC: TIB-202) are maintained in accordance with the provider's instructions in RPMI media (Life Technologies, Cat #A10491-01); RPMI is supplemented with 10% heat inactivated fetal bovine serum (Hyclone Cat #SH30396.03). The cells are differentiated into macrophages by the addition of 25 ng/mL IFN-7 (PeproTech, Cat #300-02-100UG) for 24 hours at 37° C./5% CO2. Media is exchanged with fresh media with no FBS, and the cells are treated with 50 ng/mL LPS (priming step) for 24 hours at 37° C./5% CO2 (LPS-EK: Invivogen, Cat #tlrl-peklps). Media is exchanged with fresh media with no FBS. The cells are plated at 40,000 cells per well in 384-well flat-bottom cell culture plates (Costar 3764) containing compounds (added in 1:1000) in a 1:3.16 serial dilution series in DMSO and are incubated for 30 minutes at 37° C./5% CO2. The NLRP3 inflammasome is activated with the addition of 2.5 mM ATP (Sigma Cat #A3377) and the cells are incubated for 2 hours at 37° C./5% CO2. At the end of the incubation period, 40 μL supernatant is removed, and […] are monitored using an ELISA (Human […], R&D systems, Cat #DY201) in accordance with the manufacturer's instructions.
The IC50 values are calculated from a plot of percentage of inhibition versus the inhibitor concentration by a logistics curve fit according to: Y=[Bottom+(Top−Bottom)]/(1+10^[(Log IC50−X)·Hill Slope], where Y is the % inhibition at the inhibitor concentration, X, “Bottom” is the lowest inhibition value, i.e. 0%, “Top” is the maximum inhibition value, i.e. 100%, and the “Hill Slope” describes the slope of the sigmoidal curve between the “Bottom” and “Top” values. The curve fitting was conducted with internally developed software.

Chain of NLRP3 inflammasome (Q96P20 whole entry): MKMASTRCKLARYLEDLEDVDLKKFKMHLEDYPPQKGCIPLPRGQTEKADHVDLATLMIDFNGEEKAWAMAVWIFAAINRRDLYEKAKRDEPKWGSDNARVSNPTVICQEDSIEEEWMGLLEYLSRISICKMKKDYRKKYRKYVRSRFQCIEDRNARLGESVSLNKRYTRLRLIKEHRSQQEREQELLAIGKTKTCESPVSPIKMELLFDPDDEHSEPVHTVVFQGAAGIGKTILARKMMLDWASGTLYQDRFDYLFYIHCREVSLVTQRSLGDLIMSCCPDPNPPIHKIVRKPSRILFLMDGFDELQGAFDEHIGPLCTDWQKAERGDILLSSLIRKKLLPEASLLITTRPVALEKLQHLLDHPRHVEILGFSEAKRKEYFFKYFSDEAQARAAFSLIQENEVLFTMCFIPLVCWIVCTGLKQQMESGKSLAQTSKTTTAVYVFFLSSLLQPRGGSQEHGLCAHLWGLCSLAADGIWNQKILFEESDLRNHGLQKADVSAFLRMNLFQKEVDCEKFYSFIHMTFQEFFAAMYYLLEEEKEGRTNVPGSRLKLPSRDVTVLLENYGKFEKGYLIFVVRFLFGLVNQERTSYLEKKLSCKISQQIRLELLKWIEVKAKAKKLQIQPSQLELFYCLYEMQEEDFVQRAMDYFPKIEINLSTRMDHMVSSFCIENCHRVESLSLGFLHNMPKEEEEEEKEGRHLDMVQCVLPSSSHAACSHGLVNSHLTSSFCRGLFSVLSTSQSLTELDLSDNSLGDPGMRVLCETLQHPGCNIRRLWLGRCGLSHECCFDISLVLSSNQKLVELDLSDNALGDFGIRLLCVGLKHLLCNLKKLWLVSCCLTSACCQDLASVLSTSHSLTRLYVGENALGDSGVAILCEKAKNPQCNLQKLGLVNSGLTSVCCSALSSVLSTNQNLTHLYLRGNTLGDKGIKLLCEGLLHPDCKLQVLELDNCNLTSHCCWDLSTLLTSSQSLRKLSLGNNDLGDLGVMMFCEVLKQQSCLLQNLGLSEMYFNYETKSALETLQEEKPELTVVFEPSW

SMILES	IC50 [nM]
CC(C)(C)c1ccc(-c2nnc(Nc3cccc(O)c3)c3ccccc23)cc1 [Example 5, 3-((4-(4-(tert-butyl)phenyl)phthalazin-1-yl)amino)phenol]	1440
CN1CCCC(Nc2nnc(-c3ccc(Cl)cc3)c3c2CN(S(C)(=O)=O)CC3)C1 (centres unmarked) [Example 107, 1-(4-chlorophenyl)-N-(1-methylpiperidin-3-yl)-6-(methylsulfonyl)-5,6,7,8-tetrahydropyrido[3,4-d]pyridazin-4-amine]	1780
F[C@H]1CNC[C@H](Nc2nnc(-c3ccc(Cl)cc3)c3ccncc23)C1 [Example 188, 1-(4-chlorophenyl)-N-((3R,5R)-5-fluoropiperidin-3-yl)pyrido[3,4-d]pyridazin-4-amine]	692
Cc1nccc2c(NC3CCCN(C)C3)nnc(-c3ccc(Cl)cc3)c12 (centres unmarked) [Example 77, 4-(4-chlorophenyl)-5-methyl-N-(1-methylpiperidin-3-yl)pyrido[3,4-d]pyridazin-1-amine]	1510
CN1CCCC(Nc2nnc(-c3ccc(Cl)cc3)c3ccncc23)C1 (centres unmarked) [Example 63, 1-(4-chlorophenyl)-N-(1-methylpiperidin-3-yl)pyrido[3,4-d]pyridazin-4-amine]	381
CN1CCC[C@H](Nc2nnc(-c3ccc(Cl)cc3)c3ccncc23)C1 [Example 65, (S)-1-(4-chlorophenyl)-N-(1-methylpiperidin-3-yl)pyrido[3,4-d]pyridazin-4-amine]	1220
CN1C[C@H](F)C[C@@H](Nc2nnc(-c3ccc(Cl)cc3)c3cnccc23)C1 [Example 175, 4-(4-chlorophenyl)-N-((3R,5R)-5-fluoro-1-methylpiperidin-3-yl)pyrido[3,4-d]pyridazin-1-amine]	589
CN1CCC[C@@H](Nc2nnc(-c3ccc(C(F)(F)F)cc3F)c3ccncc23)C1 [Example 33, (R)-1-(2-fluoro-4-(trifluoromethyl)phenyl)-N-(1-methylpiperidin-3-yl)pyrido[3,4-d]pyridazin-4-amine]	33
CN1CCC[C@@H](Nc2nnc(-c3ccc(OC(F)F)cc3F)c3ccncc23)C1 [Example 92, (R)-1-(4-(difluoromethoxy)-2-fluorophenyl)-N-(1-methylpiperidin-3-yl)pyrido[3,4-d]pyridazin-4-amine]	60
CN1CCCC(Nc2nnc(-c3ccc(Cl)cc3F)c3cnccc23)C1 (centres unmarked) [Example 69, 4-(4-chloro-2-fluorophenyl)-N-(1-methylpiperidin-3-yl)pyrido[3,4-d]pyridazin-1-amine]	838
CN1CCCC(Nc2nnc(-c3ccc(C(C)(C)C)nc3)c3ccccc23)C1 (centres unmarked) [Example 20, 4-(6-(tert-butyl)pyridin-3-yl)-N-(1-methylpiperidin-3-yl)phthalazin-1-amine]	626
CN1CCCC(Nc2nnc(-c3ccc(Cl)cc3Cl)c3cnccc23)C1 (centres unmarked) [Example 52, 4-(2,4-dichlorophenyl)-N-(1-methylpiperidin-3-yl)pyrido[3,4-d]pyridazin-1-amine]	2400
Cc1ccc(-c2nnc(NC34CCC(O)(CC3)C4)c3c2CCOC3)c(O)c1 [Example 231, 4-((1-(2-hydroxy-4-methylphenyl)-7,8-dihydro-5H-pyrano[3,4-d]pyridazin-4-yl)amino)bicyclo[2.2.1]heptan-1-ol]	195
CN1CCCC(Nc2nnc(-c3ccc(C(F)(F)F)nc3)c3ccccc23)C1 (centres unmarked) [Example 22, N-(1-methylpiperidin-3-yl)-4-(6-(trifluoromethyl)pyridin-3-yl)phthalazin-1-amine]	897
F[C@H]1CNC[C@H](Nc2nnc(-c3ccc(Cl)cc3)c3cnccc23)C1 [Example 187, 4-(4-chlorophenyl)-N-((3R,5R)-5-fluoropiperidin-3-yl)pyrido[3,4-d]pyridazin-1-amine]	3090
CN1CCC[C@@H](Nc2nnc(-c3ccc4c(c3)OCCO4)c3ccncc23)C1 [Example 26, (R)-1-(2,3-dihydrobenzo[b][1,4]dioxin-6-yl)-N-(1-methylpiperidin-3-yl)pyrido[3,4-d]pyridazin-4-amine]	603
CN1CCCC(Nc2nnc(-c3ccc(Cl)cc3)c3c2CCN(S(C)(=O)=O)C3)C1 (centres unmarked) [Example 106, 4-(4-chlorophenyl)-N-(1-methylpiperidin-3-yl)-6-(methylsulfonyl)-5,6,7,8-tetrahydropyrido[3,4-d]pyridazin-1-amine]	3310
Oc1ccccc1Nc1nnc(-c2ccc(Cl)cc2)c2ccccc12 [Example 156, 2-((4-(4-chlorophenyl)phthalazin-1-yl)amino)phenol]	3550
Oc1cccc(Nc2nnc(-c3ccc(C4CC4)cc3F)c3ccccc23)c1 [Example 8, 3-((4-(4-cyclopropyl-2-fluorophenyl)phthalazin-1-yl)amino)phenol]	891
FC(F)CN1CCC(Nc2nnc(-c3ccc(Cl)cc3)c3ccccc23)C1 (centres unmarked) [Example 170, 4-(4-chlorophenyl)-N-(1-(2,2-difluoroethyl)pyrrolidin-3-yl)phthalazin-1-amine]	2140

Further lines, results first:

IC50 [nM]	SMILES
3310	Clc1ccc(-c2nnc(NC3CN4CCC3C4)c3ccccc23)cc1 (centres unmarked) [Example 166, N-(1-azabicyclo[2.2.1]heptan-3-yl)-4-(4-chlorophenyl)phthalazin-1-amine]
115	Cc1ccc(-c2nnc(NC3CCCN(C)C3)c3ccccc23)cc1 (centres unmarked) [Example 15, N-(1-methylpiperidin-3-yl)-4-(p-tolyl)phthalazin-1-amine]
65	CN1CCCC(Nc2nnc(-c3ccc(C(F)(F)F)cc3)c3ccccc23)C1 (centres unmarked) [Example 13, N-(1-methylpiperidin-3-yl)-4-(4-(trifluoromethyl)phenyl)phthalazin-1-amine]
132	Clc1ccc(-c2nnc(NC3CCCN(C4CCC4)C3)c3ccccc23)cc1 (centres unmarked) [Example 145, 4-(4-chlorophenyl)-N-(1-cyclobutylpiperidin-3-yl)phthalazin-1-amine]
1200	F[C@@H]1C[C@@H](Nc2nnc(-c3ccc(Cl)cc3)c3ccccc23)CN(C2CC2)C1 [Example 54, 4-(4-chlorophenyl)-N-((3R,5R)-1-cyclopropyl-5-fluoropiperidin-3-yl)phthalazin-1-amine]
1290	FC1(F)CNCC(Nc2nnc(-c3ccc(Cl)cc3)c3ccccc23)C1 (centres unmarked) [Example 191, 4-(4-chlorophenyl)-N-(5,5-difluoropiperidin-3-yl)phthalazin-1-amine]
3020	COc1ccc(-c2nnc(N[C@H]3CC[C@](O)(C(F)(F)F)CC3)c3ccccc23)cc1 [Example 128, trans-4-((4-(4-methoxyphenyl)phthalazin-1-yl)amino)-1-(trifluoromethyl)cyclohexan-1-ol]
3630	CCN1CC(C)C(Nc2nnc(-c3ccc(Cl)cc3)c3ccccc23)C1 (centres unmarked) [Example 159, 4-(4-chlorophenyl)-N-(1-ethyl-4-methylpyrrolidin-3-yl)phthalazin-1-amine]
1230	O[C@]1(C(F)(F)F)CCC[C@@H](Nc2nnc(-c3ccc(Cl)cc3)c3ccccc23)C1 (racemic) [Example 114]
3890	COc1ccc(-c2nnc(NC3(CN4CCC4)CC3)c3ccccc23)cc1 [Example 132, N-(1-(azetidin-1-ylmethyl)cyclopropyl)-4-(4-methoxyphenyl)phthalazin-1-amine]
2190	O[C@]1(C(F)(F)F)CCC[C@H](Nc2nnc(-c3ccc(Cl)cc3)c3ccccc23)C1 [Example 115, (1R,3S)-3-((4-(4-chlorophenyl)phthalazin-1-yl)amino)-1-(trifluoromethyl)cyclohexan-1-ol]
933	O[C@]1(C(F)(F)F)C[C@H](Nc2nnc(-c3ccc(Cl)cc3)c3ccccc23)C1 [Example 120, cis-3-((4-(4-chlorophenyl)phthalazin-1-yl)amino)-1-(trifluoromethyl)cyclobutan-1-ol]
2750	COc1ccc(-c2nnc(Nc3cccc(O)c3)c3c2CCCC3)cc1 [Example 199, 3-((4-(4-methoxyphenyl)-5,6,7,8-tetrahydrophthalazin-1-yl)amino)phenol]
2820	COc1ccc(-c2nnc(NCC(C)N3CCCC3)c3ccccc23)cc1 (centres unmarked) [Example 129, 4-(4-methoxyphenyl)-N-(2-(pyrrolidin-1-yl)propyl)phthalazin-1-amine]
3390	Clc1ccc(-c2nnc(NC3CCCN(c4ccccn4)C3)c3ccccc23)cc1 (centres unmarked) [Example 154, 4-(4-chlorophenyl)-N-(1-(pyridin-2-yl)piperidin-3-yl)phthalazin-1-amine]
1150	CN1CCCC(Nc2nnc(-c3ccccc3)c3ccccc23)C1 (centres unmarked) [Example 42, N-(1-methylpiperidin-3-yl)-4-phenylphthalazin-1-amine]
1590	FCCN1CCC(Nc2nnc(-c3ccc(Cl)cc3)c3ccccc23)C1 (centres unmarked) [Example 143, 4-(4-chlorophenyl)-N-(1-(2-fluoroethyl)pyrrolidin-3-yl)phthalazin-1-amine]
4570	CN1CC(Nc2nnc(-c3ccc(Cl)cc3)c3ccccc23)C(C)(C)C1 (centres unmarked) [Example 157, 4-(4-chlorophenyl)-N-(1,4,4-trimethylpyrrolidin-3-yl)phthalazin-1-amine]
